Laboratory results taken from publication PMC10215404, “Effect of Indole-Containing Pyrazino[2,1-b]quinazoline-3,6-diones in the Virulence of Resistant Bacteria” (Antibiotics, 2023).
≈ marks a conversion by molar mass, not a printed value. Where “and” joins values, the source holds several entries; their conditions need not be identical. Identical values can stand only once. Like-named read-outs stand apart in the source and are kept apart here.

How the values were obtained:
[1] = tested on: E. coli AG100; experiment: Real-time ethidium bromide accumulation assay (efflux pump inhibition); details: minute 60
[2] = tested on: E. coli AG100A; experiment: as above; details: minute 60
[3] = tested on: E. coli SA/2; parameters: method as in PMID 34203998; details: cited from earlier work
[4] = tested on: S. aureus 272123; experiment: Real-time ethidium bromide accumulation assay (efflux pump inhibition); details: minute 60
[5] = tested on: MRSA 272123; experiment: Biofilm formation, crystal violet method; type: cell-based, Staphylococcus aureus
Description: (§1) The antibiofilm effect of the tested compounds was evaluated using the crystal violet method on E. coli AG100, E. coli AG100A, and MRSA 272123. […] CCCP was used as a positive control.
(§2) The biofilm-forming ability of the S. aureus strains was studied in 96-well microtiter plates using TSB broth in the presence of compounds. The biofilm-forming ability of the E. coli strains was studied in 96-well microtiter plates using LB broth in the presence of the compounds. […] The final volume was 200 μL in each well. The positive control was CCCP at 50 µM. Plates were incubated for 48 h at 30 °C with gentle shaking at 100 rpm. After the incubation period, the medium was removed and the plate was washed with water to remove unattached cells. A total of 200 μL CV (0.1% [v/v]) was added to each wells and incubated for 15 min at room temperature. CV was discarded from the wells and the plate was washed with water again. Then, 200 μL of 70% ethanol was added to each well and the biofilm formation was determined by measuring the OD at 600 nm using a Multiscan EX ELISA plate reader (Thermo Labsystems, Cheshire, WA, USA). The antibiofilm effect of the compounds was expressed as the percentage (%) decrease in biofilm formation.

[6] = tested on: E. coli AG100; experiment: MIC determination, broth microdilution; type: cell-based; details: Escherichia coli
Description: (§3) Both reference and resistant strains used in this work were employed by our group for the screening of different families of compounds, such as xanthones and thioxanthones.

[7] = tested on: E. coli AG100A; experiment: MIC determination, broth microdilution; type: cell-based; details: Escherichia coli
Description: as §3

[8] = tested on: S. aureus MRSA 272123; experiment: MIC determination, broth microdilution; type: cell-based; details: Staphylococcus aureus
Description: as §3

[9] = tested on: Staphylococcus aureus; details: cited from earlier work
[10] = tested on: E. coli AG100; experiment: Biofilm formation, crystal violet method; type: cell-based, Escherichia coli; details: 50 μM
Description: as §1, §2

[11] = tested on: E. faecalis PSi/107; experiment: MIC determination, broth microdilution; type: cell-based; details: Enterococcus faecalis
Description: as §3

[12] = tested on: E. faecalis B3/101 (VRE); experiment: MIC determination, broth microdilution; type: cell-based; details: Enterococcus faecalis
Description: as §3

[13] = tested on: S. aureus 66/1 (MRSA); experiment: MIC determination, broth microdilution; type: cell-based; details: Staphylococcus aureus
Description: as §3

[14] = tested on: E. faecalis PFi/2; experiment: MIC determination, broth microdilution; type: cell-based; details: Enterococcus faecalis
Description: as §3

[15] = tested on: E. faecalis ATCC 29212; experiment: MIC determination, broth microdilution; type: cell-based; details: Enterococcus faecalis
Description: as §3

[16] = tested on: S. aureus ATCC 29213; experiment: MIC determination, broth microdilution; type: cell-based; details: Staphylococcus aureus
Description: as §3

[17] = tested on: E. faecalis B3/101; experiment: Antibiotic potentiation with vancomycin, broth microdilution; details: E. faecalis B3/101; compound at 16 µg/mL
[18] = tested on: NIH/3T3 mouse fibroblast cell line; experiment: Cytotoxicity assay (MTT); type: cell-based; details: NIH3T3, 24 h
Description: The effects of increasing concentrations of compounds on cell growth were tested in 96-well flat-bottomed microtiter plates. The compounds were diluted in a volume of 100 μL of medium. Afterwards, 1 × 10^4 cells in 100 μL of medium were added to each well, with the exception of the medium control. In the case of NIH/3T3 cells, the compounds were added after seeding the cells at 37 °C overnight. The plates were incubated at 37 °C for 24 h; after the incubation period, 20 μL of MTT solution (from a 5 mg/mL stock) was added to each well. After 4 h of incubation at 37 °C, 100 μL of SDS solution (10% in 0.01 M HCl) was added to each well and the plates were incubated at 37 °C overnight. Cell growth was determined by measuring the optical density (OD) at 540 nm (ref. 630 nm) with a Multiscan EX ELISA reader. Inhibition of cell growth was determined as IC50 values, defined as the inhibitory dose that reduced the growth of the cells exposed to the tested compounds by 50%. IC50 values and the SD of triplicate experiments were calculated by using GraphPad Prism software version 5.00 for Windows with a nonlinear regression curve fit (GraphPad Software, San Diego, CA, USA; www.graphpad.com, accessed on 14 July 2022). Doxorubicin (from a 2 mg/mL stock solution, Teva Pharmaceuticals) was used as the positive control.

[19] = tested on: E. coli AG100, E. coli AG100A, and MRSA 272123; experiment: Biofilm formation, crystal violet method (overall statement); type: cell-based
Description: as §1, §2

[20] = tested on: E. faecalis including VRE; experiment: MIC, summary over E. faecalis strains; details: Enterococcus faecalis
Description: (§4) The MIC of each compound was determined by the broth microdilution method, in accordance with the recommendations of the CLSI [48]. Two-fold serial dilutions of the compounds were prepared in Mueller–Hinton Broth 2 (MHB2–Sigma-Aldrich, St. Louis, MO, USA). Sterility and growth controls were included in each assay. Quality controls were performed with erythromycin for the Gram-positive bacterial strains and with colistin for the Gram-negative bacterial strains. Purity check and colony counts of the inoculum suspensions were also performed to ensure that the final inoculum density closely approximated 5 × 10^5 CFU/mL. The MIC was determined as the lowest concentration at which no visible growth was observed. […] The reported MIC results arose from at least three independent experiments.

[21] = tested on: S. aureus, including the MRSA strains; experiment: MIC, summary over S. aureus strains; details: Staphylococcus aureus
Description: as §4

[22] = ATCC29213, value in parentheses
[23] = ATCC29212, value in parentheses

## N#CC(C#N)=NNc1cccc(Cl)c1 [CCCP, carbonyl cyanide m-chlorophenyl hydrazone, reference compound]
[1]; compound at 50 μM
  RFI ± SD: 1.56 ± 0.01
[2]; compound at 50 μM
  RFI ± SD: 1.13 ± 0.02

## CO/N=C(\C(=O)N[C@@H]1C(=O)N2C(C(=O)O)=C(COC(C)=O)CS[C@H]12)c1csc(N)n1 [CTX, cefotaxime]
[3]
  MIC: 512 µg/mL (≈ 1120 µM)

## CC(C)C[C@@H]1NC(=O)[C@@H](Cc2c[nH]c3ccccc23)n2c1nc1c(Cl)cc(Cl)cc1c2=O [Compound 4]
[4]; compound at 50 μM
  RFI ± SD: 1.13 ± 0.20
[5]
  decrease in biofilm formation: 91%
[6]
  MIC: > 100 µM
[7]
  MIC: > 100 µM
[8]
  MIC: > 100 µM
[1]; compound at 50 μM
  RFI ± SD: 0.01 ± 0.02
[9]; resistant strain of S. aureus
  MIC: 8 µg/mL (≈ 17 µM)
[9]; sensitive strain of S. aureus
  MIC: 4 µg/mL (≈ 8.52 µM)
[10]
  antibiofilm effect (in words): reduced the amount of biofilm
[2]; compound at 50 μM
  RFI ± SD: 0.26 ± 0.07

## CC(C)C[C@@H]1NC(=O)[C@@H](Cc2c[nH]c3ccccc23)n2c1nc1ccc(F)cc1c2=O [Compound 12a, (1S,4R)-4-((1H-indol-3-yl)methyl)-8-fluoro-1-isobutyl-1,2-dihydro-6H-pyrazino[2,1-b]quinazoline-3,6(4H)-dione]
[4]; compound at 50 μM
  RFI ± SD: 0.63 ± 0.04
[4]; compound at 100 μM
  RFI ± SD: 1.03 ± 0.02
[8]
  MIC: > 100 µM
[11]
  MIC: > 100 µM
[12]
  MIC: 77 µM and 32 µg/mL
[13]
  MIC: 77 µM and 32 µg/mL
[14]
  MIC: > 100 µM
[15]; ATCC29212
  MIC: > 100 µM
[16]; ATCC29213
  MIC: > 100 µM
[17]
  MIC of vancomycin in combination with the compound: 256 µg/mL
[18]
  IC50: 52.2 ± 0.75 µM
[1]; compound at 50 μM
  RFI ± SD: −0.17 ± 0.02
[1]; compound at 100 μM
  RFI ± SD: 2.45 ± 0.26
[10]
  antibiofilm effect (in words): reduced the amount of biofilm
[2]; compound at 100 μM
  RFI ± SD: 0.59 ± 0.03

## CC(C)C[C@@H]1NC(=O)[C@@H](Cc2c[nH]c3ccccc23)n2c1nc1cc(F)ccc1c2=O [Compound 12b, (1S,4R)-4-((1H-indol-3-yl)methyl)-9-fluoro-1-isobutyl-1,2-dihydro-6H-pyrazino[2,1-b]quinazoline-3,6(4H)-dione]
[4]; compound at 50 μM
  RFI ± SD: 0.96 ± 0.07
[8]
  MIC: 100 µM and 41.8 µg/mL
[11]
  MIC: > 100 µM
[12]
  MIC: 38 µM and 16 µg/mL
[13]
  MIC: 77 µM and 32 µg/mL
[14]
  MIC: > 100 µM
[15]; ATCC29212
  MIC: > 100 µM
[16]; ATCC29213
  MIC: 77 µM
[16]; [22]
  MIC: 32 µg/mL
[18]
  IC50: 58 ± 1.58 µM
[1]; compound at 50 μM
  RFI ± SD: −0.07 ± 0.06
[1]; compound at 100 μM
  RFI ± SD: 1.47 ± 0.12
[2]; compound at 100 μM
  RFI ± SD: 0.77 ± 0.17

## CC(C)C[C@@H]1NC(=O)[C@H](Cc2c[nH]c3cc(F)ccc23)n2c1nc1c(Cl)cc(Cl)cc1c2=O [Compound 12c]
[4]; compound at 6.25 μM (MIC/2)
  RFI ± SD: 0.49 ± 0.01
[19]
  antibiofilm capacity (in words): did not show any relevant activity
[8]
  MIC: 12.5 µM and 6.1 µg/mL
[11]
  MIC: > 100 µM
[12]
  MIC: 33 µM and 16 µg/mL
[13]
  MIC: 33 µM and 16 µg/mL
[14]
  MIC: > 100 µM
[15]; ATCC29212
  MIC: 33 to 66 µM
[15]; [23]
  MIC: 16 to 32 µg/mL
[16]; ATCC29213
  MIC: 33 µM
[16]; [22]
  MIC: 16 µg/mL
[18]
  IC50: 46.1 ± 0.66 µM
[1]; compound at 50 μM
  RFI ± SD: 0.24 ± 0.16
[1]; compound at 100 μM
  RFI ± SD: 3.60 ± 0.01
[2]; compound at 100 μM
  RFI ± SD: 4.40 ± 1.78

## CC(C)C[C@@H]1NC(=O)[C@H](Cc2c[nH]c3c(Cl)cccc23)n2c1nc1c(Cl)cc(Cl)cc1c2=O [Compound 12d, (1S,4S)-8,10-dichloro-4-((7-chloro-1H-indol-3-yl)methyl)-1-isobutyl-1,2-dihydro-6H-pyrazino[2,1-b]quinazoline-3,6(4H)-dione]
[20]
  MIC: 64 µM (≈ 32.2 µg/mL)
[4]; compound at 12.5 μM
  RFI ± SD: 0.34 ± 0.01
[19]
  antibiofilm capacity (in words): did not show any relevant activity
[8]
  MIC: 25 µM and 12.6 µg/mL
[11]
  MIC: > 100 µM
[12]
  MIC: 64 µM and 32 µg/mL
[13]
  MIC: 16 µM and 8 µg/mL
[14]
  MIC: > 100 µM
[15]; ATCC29212
  MIC: 64 µM
[15]; [23]
  MIC: 32 µg/mL
[16]; ATCC29213
  MIC: 32 µM
[16]; [22]
  MIC: 16 µg/mL
[21]
  MIC: 16 to 32 µM (≈ 8.06 to 16.1 µg/mL)
[18]
  IC50: 47.2 ± 1.55 µM
[1]; compound at 100 μM
  RFI ± SD: 0.32 ± 0.10
[2]; compound at 100 μM
  RFI ± SD: 0.23 ± 0.05

## CC(C)C[C@@H]1NC(=O)[C@@H](Cc2c[nH]c3ccccc23)n2c1nc1ccc(I)cc1c2=O [Compound 13a]
[4]; compound at 50 μM
  RFI ± SD: 2.39 ± 0.09
[5]
  decrease in biofilm formation: 91%
[8]
  MIC: > 100 µM
[1]; compound at 50 μM
  RFI ± SD: 0.38 ± 0.01
[2]; compound at 50 μM
  RFI ± SD: 0.48 ± 0.58
